Reference: the NIST ThermoML archive (doi:10.1021/je500381c)
Numbers after ± are expanded uncertainties.

Assay: refractive index (Na D-line) (dimensionless); xn = mol fraction of the nth substance listed
Conditions: 100 kPa, Liquid, Standard Abbe refractometry

CC12CC3CC(C)(C1)CC(C)(C3)C2 [1,3,5-trimethyladamantane] + OCC1CCCCC1
refractive index
Conditions	x2 = 0	x2 = 0.1	x2 = 0.2001	x2 = 0.2997	x2 = 0.4	x2 = 0.4994	x2 = 0.5991	x2 = 0.7	x2 = 0.801	x2 = 0.8927
293.15 K	1.4736 ± 0.001	1.4727 ± 0.001	1.4718 ± 0.001	1.4711 ± 0.001	1.4703 ± 0.001	1.4694 ± 0.001	1.4684 ± 0.001	1.4673 ± 0.001	1.4661 ± 0.001	1.465 ± 0.001
298.15 K	1.4715 ± 0.001	1.4708 ± 0.001	1.47 ± 0.001	1.4691 ± 0.001	1.4681 ± 0.001	1.4672 ± 0.001	1.4663 ± 0.001	1.4655 ± 0.001	1.4641 ± 0.001	1.4631 ± 0.001
303.15 K	1.4695 ± 0.001	1.4686 ± 0.001	1.4676 ± 0.001	1.4669 ± 0.001	1.4659 ± 0.001	1.465 ± 0.001	1.4643 ± 0.001	1.4632 ± 0.001	1.4621 ± 0.001	1.4609 ± 0.001
313.15 K	1.4649 ± 0.001	1.4641 ± 0.001	1.4633 ± 0.001	1.4625 ± 0.001	1.4618 ± 0.001	1.4608 ± 0.001	1.46 ± 0.001	1.459 ± 0.001	1.458 ± 0.001	1.4568 ± 0.001
323.15 K	1.4612 ± 0.001	1.46 ± 0.001	1.4589 ± 0.001	1.4582 ± 0.001	1.4573 ± 0.001	1.4565 ± 0.001	1.4556 ± 0.001	1.4549 ± 0.001	1.4539 ± 0.001	1.4528 ± 0.001
333.15 K	1.4568 ± 0.001	1.4552 ± 0.001	1.4545 ± 0.001	1.4538 ± 0.001	1.453 ± 0.001	1.4522 ± 0.001	1.4513 ± 0.001	1.4504 ± 0.001	1.4492 ± 0.001	1.4486 ± 0.001

CC12CC3CC(C1)CC(C)(C3)C2 [1,3-dimethyladamantane] + CCCCCCCO
refractive index
Conditions	x2 = 0	x2 = 0.1001	x2 = 0.1997	x2 = 0.2998	x2 = 0.3997	x2 = 0.4997	x2 = 0.6002	x2 = 0.7	x2 = 0.7996	x2 = 0.8999
293.15 K	1.4776 ± 0.001	1.4735 ± 0.001	1.4696 ± 0.001	1.4642 ± 0.001	1.4591 ± 0.001	1.4541 ± 0.001	1.4483 ± 0.001	1.4427 ± 0.001	1.4365 ± 0.001	1.4299 ± 0.001
298.15 K	1.4757 ± 0.001	1.4714 ± 0.001	1.4678 ± 0.001	1.4624 ± 0.001	1.4572 ± 0.001	1.4519 ± 0.001	1.4468 ± 0.001	1.4411 ± 0.001	1.4351 ± 0.001	1.4282 ± 0.001
303.15 K	1.4734 ± 0.001	1.4695 ± 0.001	1.4654 ± 0.001	1.4603 ± 0.001	1.4551 ± 0.001	1.4495 ± 0.001	1.4442 ± 0.001	1.4389 ± 0.001	1.4333 ± 0.001	1.4265 ± 0.001
313.15 K	1.4691 ± 0.001	1.4646 ± 0.001	1.4608 ± 0.001	1.4558 ± 0.001	1.4508 ± 0.001	1.4457 ± 0.001	1.4402 ± 0.001	1.4347 ± 0.001	1.4288 ± 0.001	1.4223 ± 0.001
323.15 K	1.4651 ± 0.001	1.4606 ± 0.001	1.4567 ± 0.001	1.4514 ± 0.001	1.4464 ± 0.001	1.4411 ± 0.001	1.4359 ± 0.001	1.4301 ± 0.001	1.4244 ± 0.001	1.4178 ± 0.001
333.15 K	1.461 ± 0.001	1.4564 ± 0.001	1.4527 ± 0.001	1.4473 ± 0.001	1.4422 ± 0.001	1.437 ± 0.001	1.4316 ± 0.001	1.4262 ± 0.001	1.4206 ± 0.001	1.4141 ± 0.001

CCC12CC3CC(CC(C3)C1)C2 [1-ethyladamantane] + CCCCCCCO
refractive index
Conditions	x2 = 0	x2 = 0.0999	x2 = 0.1999	x2 = 0.2988	x2 = 0.3991	x2 = 0.4998	x2 = 0.5995	x2 = 0.7	x2 = 0.8002	x2 = 0.9
293.15 K	1.4927 ± 0.001	1.4869 ± 0.001	1.4809 ± 0.001	1.4746 ± 0.001	1.4682 ± 0.001	1.461 ± 0.001	1.4546 ± 0.001	1.4473 ± 0.001	1.4397 ± 0.001	1.4316 ± 0.001
298.15 K	1.4906 ± 0.001	1.4847 ± 0.001	1.4785 ± 0.001	1.4725 ± 0.001	1.466 ± 0.001	1.4594 ± 0.001	1.4522 ± 0.001	1.4451 ± 0.001	1.4376 ± 0.001	1.4298 ± 0.001
303.15 K	1.4884 ± 0.001	1.4827 ± 0.001	1.4768 ± 0.001	1.4704 ± 0.001	1.464 ± 0.001	1.4573 ± 0.001	1.4499 ± 0.001	1.4433 ± 0.001	1.4359 ± 0.001	1.4278 ± 0.001
313.15 K	1.4839 ± 0.001	1.4782 ± 0.001	1.4722 ± 0.001	1.466 ± 0.001	1.4596 ± 0.001	1.4528 ± 0.001	1.4462 ± 0.001	1.4389 ± 0.001	1.4316 ± 0.001	1.4236 ± 0.001
323.15 K	1.4802 ± 0.001	1.474 ± 0.001	1.468 ± 0.001	1.4618 ± 0.001	1.4554 ± 0.001	1.4486 ± 0.001	1.4419 ± 0.001	1.4349 ± 0.001	1.4273 ± 0.001	1.4198 ± 0.001
333.15 K	1.4759 ± 0.001	1.4697 ± 0.001	1.4635 ± 0.001	1.4577 ± 0.001	1.451 ± 0.001	1.4443 ± 0.001	1.4373 ± 0.001	1.4305 ± 0.001	1.423 ± 0.001	1.4156 ± 0.001
